As usually defined, the efflux ratio is a quotient of directional permeabilities that is used to spot active efflux. The Papp A→B is the apparent permeability from the apical to the basolateral side of a cell layer. High values mean ready permeation, low ones poor permeation.

This note sets out measurements from patent US10479794B2, “Cyclic ether derivatives of pyrazolo[1,5-a]pyrimidine-3-carboxyamide” (Boehringer Ingelheim International GmbH, priority 2015, dated 2019).

This series deals with human MDR1 P-gp. Put plainly: Assessment of efflux in MDCK cells transfected with the human MDR1 gene (MDCK assay). It counts as in vitro ADME, canine. The settings on record: dog; for efflux ratio at 2 h: MDCK-MDR1, pH 7.4, MDCK-MDR1, Papp (b-a) divided by Papp (a-b); for Papp A→B at 2 h: MDCK-MDR1, pH 7.4, MDCK-MDR1 monolayers, apical-to-basal, pH 7.4, 37° C. The protocol:
Assessment of Efflux in Madin-Darby Canine Kidney Cells Transfected with the Human MDR1 Gene (MDCK Assay)
Apparent permeability coefficients (PE) of the compounds across the MDCK-MDR1 cell monolayers are measured (pH 7.4, 37° C.) in apical-to-basal (AB) and basal-to-apical (BA) transport direction. AB permeability (PEAB) represents drug absorption from the blood into the brain and BA permeability (PEBA) drug efflux from the brain back into the blood via both passive permeability as well as active transport mechanisms mediated by efflux and uptake transporters that are expressed on the MDCK-MDR1 cells, predominantly by the overexpressed human MDR1 P-gp. The compounds are assigned to permeability/absorption classes by comparison of the AB permeabilities with the AB permeabilities of reference compounds with known in vitro permeability and oral absorption in the human. Identical or similar permeabilities in both transport directions indicate passive permeation, vectorial permeability points to additional active transport mechanisms. Higher PEBA than PEAB indicates the involvement of active efflux mediated by MDR1 P-gp. Active transport is concentration-dependently saturable.
MDCK-MDR1 cells (1-2×10e5 cells/1 cm2 area) are seeded on filter inserts (Costar transwell polycarbonate or PET filters, 0.4 μm pore size) and cultured (DMEM) for 7 days. Subsequently, the MDR1 expression is boosted by culturing the cells with 5 mM sodium butyrate in full medium for 2 days. Compounds are dissolved in appropriate solvent (like DMSO, 1-20 mM stock solutions). […] The transport solution (TL) is applied to the apical or basolateral donor side for measuring A-B or B-A permeability (3 filter replicates), respectively. The receiver side contains the same buffer as the donor side. Samples are collected at the start and end of experiment from the donor and at various time intervals for up to 2 hours also from the receiver side for concentration measurement by HPLC-MS/MS or scintillation counting. Sampled receiver volumes are replaced with fresh receiver solution. Efflux ratio is calculated dividing the Papp (b-a) values by the Papp (a-b) values.

Molecules are shown by their SMILES.

Take `O=C(NC1(c2ccc(C(F)(F)F)cc2)CCOC1)c1cnn2cc(C3CC3)cnc12` (racemic) [Example 37]: the efflux ratio at 2 h amounted to 0.5 and the Papp A→B at 2 h amounted to 86 ×10⁻⁶ cm/s.

`Cc1cnc2c(C(=O)NC3(c4ccc(C(F)(F)F)cc4F)CCOCC3O)cnn2c1` (racemic) [Example 46] showed an apparent permeability from apical to basolateral (Papp A→B) at 2 h of 60 ×10⁻⁶ cm/s.

`Cc1nn2cc(C3CC3)cnc2c1C(=O)NC1(c2ccc(C(F)(F)F)nc2)CCOCC1O` (racemic) [Example 51] registered a Papp A→B at 2 h of 11 ×10⁻⁶ cm/s.

As to `CC1(O)COCCC1(NC(=O)c1cnn2cc(C3CC3)cnc12)c1ccc(C(F)(F)F)cc1F` (racemic) [Example 53], the Papp A→B at 2 h turned out to be 15 ×10⁻⁶ cm/s.

As for `O=C(NC1(c2ccc(C(F)(F)F)cc2F)COCC1O)c1cnn2cc(C3CC3)cnc12` (single isomer, unassigned) [Example 69], the efflux ratio at 2 h is 1.3 and the apical-to-basolateral permeability (Papp A→B) at 2 h was 25 ×10⁻⁶ cm/s.

`Cc1cnc2c(C(=O)NC3(c4ccc(C(F)(F)F)cc4F)CCOCC3O)cnn2c1` (single isomer, unassigned) [Example 81a] gave a Papp A→B at 2 h of 60 ×10⁻⁶ cm/s.

With `O=C(NC1(c2ccc(C(F)(F)F)cc2F)CCOCC1O)c1cnn2cc(C3CC3)cnc12` (single isomer, unassigned) [Example 82a], the efflux ratio at 2 h was determined as 1 and the Papp A→B at 2 h was determined as 59 ×10⁻⁶ cm/s.

`Cc1cnc2c(C(=O)NC3(c4ccc(C(F)(F)F)cc4F)CCOCC3(C)O)cnn2c1` (single isomer, unassigned) [Example 83a] gave a Papp A→B at 2 h of 34 ×10⁻⁶ cm/s.

`Cc1cnc2c(C(=O)NC3(c4ccc(C(F)(F)F)cc4F)CCOCC3)cnn2c1` [Example 2]: the efflux ratio at 2 h is 0.6 and the Papp A→B at 2 h came out at 84 ×10⁻⁶ cm/s.

Consider `O=C(NC1(c2ccc(C(F)(F)F)cc2F)CCOCC1)c1cnn2cc(F)cnc12` [Example 3], for which the efflux ratio at 2 h came to 0.7 and the Papp A→B at 2 h came to 97 ×10⁻⁶ cm/s.

`Cc1nn2cc(C3CC3)cnc2c1C(=O)NC1(c2ncc(C(F)(F)F)cc2F)CCOCC1` [Example 17]: the efflux ratio at 2 h was found to be 0.6 and the Papp A→B at 2 h is 85 ×10⁻⁶ cm/s.

For the compound `Cc1nn2cc(C3CC3)cnc2c1C(=O)NC1(c2ccc(C(F)(F)F)cn2)CCOCC1` [Example 21], the efflux ratio at 2 h was determined as 0.6 and the Papp A→B at 2 h was found to be 94 ×10⁻⁶ cm/s.

Regarding `Cc1nn2cc(C3CC3)cnc2c1C(=O)NC1(c2ccc(C(F)(F)F)nc2)CCOCC1` [Example 25], the efflux ratio at 2 h amounted to 0.8 and the Papp A→B at 2 h worked out at 100 ×10⁻⁶ cm/s.
